Source: patent US12503455B2, “Nucleic acid-binding photoprobes and uses thereof” (Arrakis Therapeutics, Inc., priority 2017, dated 2025)

Columns and labels:
Assay type in all cases: binding
Aptamer 21 [1] = test: Reverse transcriptase pausing (drop-off) gel assay of photo-crosslinking to Aptamer 21
Description: A solution of RNA at 2 to 5 μM in nuclease-free water was heated to 95° C. for 3 min and then cooled on ice for 2 min. This solution was diluted with ½ volume of 3×RNA folding buffer (60 mM TrisHCl pH 8, 300 mM KCl, 9 mM MgCl2) and incubated at 37° C. for 20 min. Folding was carried out immediately before use of the RNA in each experiment. In cases where a mixture of RNA molecules was used in vitro the RNAs were folded separately and then combined prior to the probing experiment.
Folded RNA (1 μM) was incubated with the photoaffinity probe (10 μM) in total 25 μL of buffer (20 mM TrisHCl pH 8, 100 mM KCl, 3 mM MgCl2) with 2.5% DMSO for 30 min at 37° C. to allow binding to come to equilibrium. The sample was then irradiated with long wave UV light (˜365 nm) for 30 min in a UV crosslinker (Fisher Scientific).
A 3.75 μL aliquot of 10 μM reverse transcription primer was added to the cross-linked RNA sample, which was then incubated for 5 min at 65° C. and then cooled on ice. The sample was then diluted to a final volume of 60 μL and final buffer concentration of 1× Protoscript-II buffer (New England Biolabs), 0.5 mM dNTPs, 10 mM DTT, 0.4 U/μL RNase Inhibitor (New England Biolabs), and 10 U/μL Protoscript-II (New England Biolabs). The reaction was incubated at 45° C. for 2 h, 65° C. for 20 min, and then 4° C.
The RNA was hydrolyzed by the addition of 4.8 μL of 2.5 M NaOH and heating at 95° C. for 5 min. The reaction was quenched by the addition of 0.9 μL of acetic acid. The cDNA was precipitated by the addition of 6.6 μL of 3 M sodium acetate pH 5 and 181 μL ethanol, cooling to −80° C. for 1 h, and then centrifuging at 20,500×g at 4° C. for 30 min. The cDNA pellet was washed twice with 500 μL of 70% ethanol and then air dried for 5 min.
The cDNA pellet was resuspended in 12 μL of 1×TBE-urea sample loading buffer (Bio-Rad) and heated to 95° C. for 5 min. The sample was then run on a pre-cast 8.6×6.7 cm TBE-urea 10% PAGE gel (Bio-Rad) at 120 V until the lower bromophenol blue dye reached the bottom of the gel. The gel was stained with 1×SYBR-gold (Invitrogen) in 1×TBE buffer at room temperature for 20 min covered from light. The gel fluorescence was imaged on an Azure c600 instrument.

Aptamer 21 [2] = test: LC-MS analysis of cross-linked RNA
Description: Folded RNA (1.33 μM) was incubated with or without the photoaffinity probe (20 μM) in total 100 μL of buffer (20 mM TrisHCl pH 8, 100 mM KCl, 3 mM MgCl2) with 2% DMSO for 30 min at 37° C. to allow binding to come to equilibrium. The sample was then irradiated with long wave UV light (˜365 nm) for 30 min in a UV crosslinker (Fisher Scientific).
The RNA was then precipitated by adding 10 μL of 3 M sodium acetate pH 5 and 275 μL ethanol, cooling to −80° C. for 1 h, and then centrifuging at 20,500×g at 4° C. for 30 min. The RNA pellet was washed with 500 μL of 70% ethanol, air dried for 5 min, and then resuspended in 120 μL of water.
50 μL of RNA sample was injected onto Clarity 2.6 μm Oligo X-T column (50*2.1 mm, 60° C.), and the gradient and flowrate were as follows: 95% A/5% B to 75% A/25% B over 5 min, flowrate: 400 μL/min; 75% A/25% B to 30% A/70% B over 1 min, flowrate: 400 μL/min; 100% D over 1 min, flowrate: 500 μL/min; 95% A/5% B over 2 min, flowrate: 500 μL/min (A: 1% HFIPA (hexafluoroisopropyl alcohol), 0.1% DIEA (diisopropylethylamine), 1 μM EDTA (ethylenediamine tetraacetic acid) in H2O; B: 0.075% HFIPA, 0.0375% DIEA, 1 μM EDTA in 65/35 MeCN/H2O; D: 40/40/20% MeOH/MeCN/H2O); The LCMS instrument was a Thermo Finnigan LTQ, and ProMass deconvolution software coupled with Xcaliber were used for all data processing.

Aptamer 21-E = test: Photo-crosslinking of ARK-547 with negative control Aptamer 21-E
Description: A 9.5 μL sample of folded RNA (2.6 μM) in buffer (20 mM TrisHCl pH 8, 100 mM KCl, 3 mM MgCl2) was added to a 0.5 μL aliquot of 1 mM ARK-547 in DMSO. The reaction was incubated for 10 min at 37° C., irradiated with long wave UV light (˜365 nm) for 30 min in a UV crosslinker (Fisher Scientific), and then kept on ice.
The samples of cross-linked RNA were diluted to a final volume of 20 μL and final reaction conditions of 1×T4 RNA ligase buffer (New England Biolabs), 5 U/μL T4 RNA ligase 2, truncated KQ (New England Biolabs), 16.5% PEG-8000, and 0.5 μM universal miRNA cloning linker (New England Biolabs). The reaction was incubated in a thermal cycler for 2.5 h cycling between 5 min at 16° C. and 3 min at 25° C. The RNA was then purified using Agencourt AMPure XP beads (Beckman Coulter) using the standard protocol from the manufacturer. […]
To remove excess primer, the sample was mixed with 4.5 μL of ExoSAP-IT, incubated at 37° C. for 15 min, and then quenched with 1 μL of 0.5 M EDTA pH 8. […] The concentration was determined by absorbance at 260 nm. […]
The concentrations of different PCR products were measured using the Denovix dsDNA fluorescence quantitation kit (Denovix) and multiplexed at equal concentrations with a 20% PhiX spike-in. Sequencing was performed on an Illumina MiSeq with 150 bp paired-end reads using the standard manufacturer protocol.

Aptamer 21 [3] = test: Capture of Aptamer 21 with click-biotinylated probes; details: Aptamer 21 or Aptamer 21-E
Description: A 50 μL sample of 1 μM folded Aptamer 21 or Aptamer 21-E solution in folding buffer (20 mM TrisHCl pH 8, 100 mM KCl, 3 mM MgCl2) was added to a 0.5 μL aliquot of 0.5 mM ARK-729, ARK-2058, ARK-816, or ARK-2059 in DMSO or a DMSO-only control. The solution was incubated at 37° C. for 1 h and then irradiated with long wave UV light (˜365 nm) for 30 min in a UV crosslinker (Fisher Scientific). To this solution was added 0.5 μL of 10 mM DBCO-biotin (Click Chemistry Tools, cat. #A105) and 2 μL of 0.5 M EDTA pH 8 and then the solution was incubated at 65° C. for 2 h. The RNA was ethanol precipitated by adding 35 μL of water, 2 uL of 5 mg/mL glycogen, 10 μL 3 M NaOAc pH 5, and 250 μL ethanol, incubating at −80° C. for 1 h, centrifuging at 20000×g for 30 min, washing the pellet twice with 500 μL of 70% ethanol, and then air drying the pellet.
The RNA pellet was redissolved in 50 μL of 1× bind/wash buffer (20 mM TrisHCl pH 7, 100 mM KCl, 0.1% Tween-20). A 50 μL aliquot of MyOne Streptavidin C1 Dynabead slurry (Thermo) was captured on a magnet, washed twice with 50 μL of 1× bind/wash buffer, and then resuspended in 50 μL of the crosslinked RNA sample. The bead suspension was rotated at room temperature for 30 min and then washed twice with 100 μL of 1× bind/wash solution. […]

| Structure (SMILES) | cross-linking with Apt21 RNA (RT pausing) (Aptamer 21 [1]; 1 uM RNA, 10 uM probe (9 uM PreQ1 probe), UV ~360 nm) | shortened sequences produced in PEARL-seq reverse transcriptase pausing gel assay (Aptamer 21 [1]; FIG. 52) | covalent modification of the RNA by LC-MS (Aptamer 21 [2]) [%] | binding to negative control Aptamer 21-E (Aptamer 21-E) | photoadduct with Aptamer 21-E (Aptamer 21-E) | RT pausing peaks after click-biotinylation and avidin bead enrichment (Aptamer 21 [3]) |
| --- | --- | --- | --- | --- | --- | --- |
| COC(=O)C1=C(COCc2cn(CCOCCOCCNC(=O)CCC3(C)N=N3)nn2)NC(c2ccncc2)=NC1c1ccc(F)cc1Cl (stereo not drawn) [ARK-547] | specific and UV-dependent cross-linking | shortened sequences of particular lengths | 5 | does not bind | no photoadduct |  |
| COC(=O)C1=C(COCc2cn(CCOCCOCCNC(=O)c3cc(CN=[N+]=[N-])cc(N=[N+]=[N-])c3)nn2)NC(c2ccncc2)=NC1c1ccc(F)cc1Cl (stereo not drawn) [ARK-729] |  |  |  |  |  | RT pausing peaks specific to Aptamer 21 |
